Values after ≈ are worked out from the molar mass of the structure shown.
Experiments:
Assay in all cases: MIC, broth microdilution
[1] = tested on: E. coli GC 6465; conditions: Escherichia coli, GC6465, E. coli GC 6465
[2] = tested on: E. coli GC 2272; conditions: Escherichia coli, GC2272, E. coli GC 2272
Procedure: (§1) Antimicrobial susceptibility testing. The in vitro activities of the antibiotics are determined by the broth microdilution method as recommended by the National Committee for Clinical Laboratory Standards (NCCLS) (1). Mueller-Hinton II broth (MHBII)(BBL Cockeysville, Md.) is the medium employed in the testing procedures. Microtiter plates containing serial dilutions of each antimicrobial agent are inoculated with each organism to yield the appropriate density (10^5 CFU/ml) in a 100 μl final volume. The plates are incubated for 18-22 hours at 35° C. in ambient air.
Representative compounds were first incubated in mouse serum for an hour prior to the in vitro testing against a panel of selected gram-positive and gram-negative bacteria strains. All compounds were also pre-incubated in water for an hour prior to testing as control. Representative compounds of Formula I were incubated in human serum prior to MIC determination.

[3] = tested on: E. coli GC 2233; conditions: Escherichia coli, GC2233, E. coli GC 2233
[4] = tested on: E. faecium GC 2243; conditions: Enterococcus faecium, GC2243, E. faecium GC 2243
[5] = tested on: E. coli GC 1073; conditions: Escherichia coli, GC1073, E. coli GC 1073
[6] = tested on: P. aeruginosa GC 2214; conditions: Pseudomonas aeruginosa, GC2214, P. aeruginosa GC 2214
[7] = tested on: E. faecalis GC 2267; conditions: Enterococcus faecalis, GC2267, E. faecalis GC 2267
[8] = tested on: S. aureus GC 1079; conditions: Staphylococcus aureus, GC1079, S. aureus GC 1079
[9] = tested on: S. epidermidis GC 4935; conditions: Staphylococcus epidermidis, GC4935, S. epidermidis GC 4935
[10] = tested on: S. aureus GC 1131; conditions: Staphylococcus aureus, GC1131, S. aureus GC 1131
[11] = tested on: S. aureus GC 6469; conditions: Staphylococcus aureus, GC6469, S. aureus GC 6469
Procedure: as §1
Representative compounds were first incubated in mouse serum for an hour prior to the in vitro testing against a panel of selected gram-positive and gram-negative bacteria strains. All compounds were also pre-incubated in water for an hour prior to testing as control.

[12] = tested on: E. coli GC 2203; conditions: Escherichia coli, GC2203, E. coli GC 2203
[13] = tested on: S. aureus GC 6335; conditions: Staphylococcus aureus, GC6335, S. aureus GC 6335
[14] = tested on: E. coli GC 2270; conditions: Escherichia coli, GC2270, E. coli GC 2270
[15] = tested on: E. faecalis GC 2265; conditions: Enterococcus faecalis, GC2265, E. faecalis GC 2265
[16] = tested on: E. coli GC 2271; conditions: Escherichia coli, GC2271, E. coli GC 2271
[17] = tested on: c. albicans GC 3066
[18] = tested on: E. coli GC 4560; conditions: Escherichia coli, GC4560, E. coli GC 4560
[19] = tested on: E. coli GC 3226; conditions: Escherichia coli, GC3226, E. coli GC 3226
[20] = tested on: S. aureus GC 6467; conditions: Staphylococcus aureus, GC6467, S. aureus GC 6467

Question: With `CCCN(CC(=O)Nc1cc(N(C)C)c2c(c1O)C(=O)C1=C(O)[C@]3(O)C(=O)C(C(N)=O)=C(O)[C@@H](N(C)C)[C@@H]3C[C@@H]1C2)C(=O)OCOC(=O)Cc1ccccc1` [Example 11, ({[(2-{[(5aR,6aS,7S,10aS)-9-(aminocarbonyl)-4,7-bis(dimethylamino)-1,8,10a,11′-tetrahydroxy-10,12-dioxo-5,5a,6,6a,7,10,10a,12-octahydrotetracen-2-yl]amino}-2-oxoethyl)(propyl)amino]carbonyl}oxy)methyl phenylacetate] as the compound, how does the MIC ([1]; Mouse Serum pre-incubation) read?
Answer: 8 µg/mL (≈ 10.5 µM)

Question: And the MIC ([1]; Water pre-incubation)?
Answer: > 64 µg/mL

Question: What about the MIC ([2]; Mouse Serum pre-incubation) of the same compound?
Answer: 0.25 µg/mL (≈ 0.327 µM)

Question: And the MIC ([2]; Water pre-incubation)?
Answer: 4 µg/mL (≈ 5.24 µM)

Question: And the MIC ([3]; Mouse Serum pre-incubation)?
Answer: 0.25 µg/mL (≈ 0.327 µM)

Question: And the MIC ([3]; Water pre-incubation)?
Answer: 8 µg/mL (≈ 10.5 µM)

Question: And the MIC ([4]; Mouse Serum pre-incubation)?
Answer: 0.12 µg/mL (≈ 0.157 µM)

Question: And the MIC ([4]; Water pre-incubation)?
Answer: 0.25 µg/mL (≈ 0.327 µM)

Question: And the MIC ([5]; Mouse Serum pre-incubation)?
Answer: 0.5 µg/mL (≈ 0.655 µM)

Question: And the MIC ([5]; Water pre-incubation)?
Answer: 16 µg/mL (≈ 20.9 µM)

Question: What about the MIC ([6]; Mouse Serum pre-incubation) of the same compound?
Answer: 16 µg/mL (≈ 20.9 µM)

Question: And the MIC ([6]; Water pre-incubation)?
Answer: > 64 µg/mL

Question: What about the MIC ([7]; Mouse Serum pre-incubation) of the same compound?
Answer: 2 µg/mL (≈ 2.62 µM)

Question: And the MIC ([7]; Water pre-incubation)?
Answer: 2 µg/mL (≈ 2.62 µM)

Question: What about the MIC ([8]; Mouse Serum pre-incubation) of the same compound?
Answer: 2 µg/mL (≈ 2.62 µM)

Question: What about the MIC ([8]; Water pre-incubation) of the same compound?
Answer: 4 µg/mL (≈ 5.24 µM)

Question: What about the MIC ([9]; Mouse Serum pre-incubation) of the same compound?
Answer: 1 µg/mL (≈ 1.31 µM)

Question: And the MIC ([9]; Water pre-incubation)?
Answer: 2 µg/mL (≈ 2.62 µM)

Question: And the MIC ([10]; Mouse Serum pre-incubation)?
Answer: 0.25 µg/mL (≈ 0.327 µM)

Question: What about the MIC ([10]; Water pre-incubation) of the same compound?
Answer: 0.25 µg/mL (≈ 0.327 µM)

Question: What about the MIC ([11]; Mouse Serum pre-incubation) of the same compound?
Answer: 4 µg/mL (≈ 5.24 µM)

Question: What about the MIC ([11]; Water pre-incubation) of the same compound?
Answer: 4 µg/mL (≈ 5.24 µM)

Question: And the MIC ([12]; Mouse Serum pre-incubation)?
Answer: 0.25 µg/mL (≈ 0.327 µM)

Question: What about the MIC ([12]; Water pre-incubation) of the same compound?
Answer: 16 µg/mL (≈ 20.9 µM)

Question: What about the MIC ([13]; Mouse Serum pre-incubation) of the same compound?
Answer: 1 µg/mL (≈ 1.31 µM)

Question: What about the MIC ([13]; Water pre-incubation) of the same compound?
Answer: 1 µg/mL (≈ 1.31 µM)

Question: What about the MIC ([14]; Mouse Serum pre-incubation) of the same compound?
Answer: 0.5 µg/mL (≈ 0.655 µM)

Question: What about the MIC ([14]; Water pre-incubation) of the same compound?
Answer: 8 µg/mL (≈ 10.5 µM)

Question: What about the MIC ([15]; Mouse Serum pre-incubation) of the same compound?
Answer: 2 µg/mL (≈ 2.62 µM)

Question: What about the MIC ([15]; Water pre-incubation) of the same compound?
Answer: 4 µg/mL (≈ 5.24 µM)

Question: What about the MIC ([16]; Mouse Serum pre-incubation) of the same compound?
Answer: 0.25 µg/mL (≈ 0.327 µM)

Question: What about the MIC ([16]; Water pre-incubation) of the same compound?
Answer: 4 µg/mL (≈ 5.24 µM)

Question: And the MIC ([17]; Candida albicans, GC3066)?
Answer: > 64 µg/mL

Question: What about the MIC ([17]; c. albicans GC 3066, Water pre-incubation) of the same compound?
Answer: >64 UG/ML

Question: What about the MIC ([18]; Mouse Serum pre-incubation) of the same compound?
Answer: 0.12 µg/mL (≈ 0.157 µM)

Question: What about the MIC ([18]; Water pre-incubation) of the same compound?
Answer: 0.12 µg/mL (≈ 0.157 µM)

Question: And the MIC ([19]; Mouse Serum pre-incubation)?
Answer: 0.5 µg/mL (≈ 0.655 µM)

Question: And the MIC ([19]; Water pre-incubation)?
Answer: > 64 µg/mL

Question: What about the MIC ([20]; Mouse Serum pre-incubation) of the same compound?
Answer: 4 µg/mL (≈ 5.24 µM)

Question: What about the MIC ([20]; Water pre-incubation) of the same compound?
Answer: 4 µg/mL (≈ 5.24 µM)
